In PubChem BioAssay (NCI):
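How tested: cells in 96-well plates exposed to compound for 48 hours at five concentrations. TGI: concentration producing complete growth inhibition.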 Where a SMILES comes first, the peptide text is derived from it. [ ]: non-standard residue; d: D form. The star is where a group is joined. Cbz = O=C(OCc1ccccc1)*; Aib = CC(C)(N)C(=O)O; OBn = c1ccc(CO*)cc1

system: CCRF-CEM leukemia; assay: NCI anticancer screen, dose series, 48 h

`O=C(CN1C(=O)CC(c2ccccc2)(c2ccccc2)C1=O)N1CCN(CCO)CC1` and `CN1CC[C@]2(c3cccc(O)c3)CC(=O)/C(=C/c3ccccc3)[C@@H]1C2` cannot be ordered by TGI: greater than 100 µM for the first, greater than 24.5 µM for the second.

`O=[N+]([O-])c1cc2oc(CSc3ccccc3)nc2cc1Cl` and `CCc1n[nH]c(=O)n1-c1ccc2ccccc2c1` cannot be ordered by TGI: greater than 100 µM for the first, greater than 100 µM for the second.

`CC(C)(CO)CNc1nc(N)nc(Cl)c1/C=N/O` and `O=C(NCCCl)O/N=C/c1cccnc1` cannot be ordered by TGI: greater than 100 µM for the first, greater than 100 µM for the second.

First: COc1ccc2oc(=N)c(C(=O)Nc3ccccc3)cc2c1
Second: O=C(c1ccccc1)c1ccc2c(c1)NC(=O)c1ccccc1SSc1ccccc1C(=O)N2
The TGI of the first is lower: 37.1 µM for the first, greater than 100 µM for the second.

`O=c1onc2n1-c1cc(Cl)ccc1C(=S)N1CSCC21` (configuration not stated) and `O=C1CSC2(CC(/C=C/c3cccs3)=NN2c2cccc(S(=O)(=O)O)c2)N1c1nc2ccccc2s1` (configuration not stated) cannot be ordered by TGI: greater than 100 µM for the first, greater than 100 µM for the second.

`O=C(O)C(O)C(O)C(O)C(O)CO` (configuration not stated) and `COc1ccc(CC(N)=O)cc1OC` cannot be ordered by TGI: greater than 100 µM for the first, greater than 1250 µM for the second.

`OC(C#CCN1CCCC1)(c1ccccc1)c1ccccc1Cl` (configuration not stated) and `CSc1nc2c(c(N(C)C)n1)C(O)n1c(nc3ccccc31)S2` (configuration not stated) cannot be ordered by TGI: greater than 100 µM for the first, greater than 100 µM for the second.

`C[C@@H]1CCC2[C@@H](C)[C@@H](O[C@H]3O[C@@H]4O[C@@]5(C)CCC6[C@H](C)CCC([C@H]3C)[C@]64OO5)O[C@@H]3O[C@@]4(C)CCC1[C@@]23OO4` (some centres not stated) and `CCOC(=O)CNC(=O)NC12CC3CC(CC(C3)C1)C2` cannot be ordered by TGI: greater than 25 µM for the first, greater than 550 µM for the second.

system: ACHN renal; assay: NCI anticancer screen, dose series, 48 h

Going from `Cc1cc(N(C)C)c2ccccc2[n+]1CCCCCCCCCC[n+]1c(C)cc(N(C)C)c2ccccc21` to `O=c1c2c(no[n+]2[O-])c2ccccc2n1-c1ccccc1`, the TGI rises from 6.34 µM to 42.7 µM (6.7-fold).

`CO/N=C(/C(=O)OC)c1ccccc1COc1ccccc1C(F)(F)F` and `COc1ccc2oc(=N)c(C(=O)Nc3ccccc3)cc2c1` cannot be ordered by TGI: greater than 100 µM for the first, greater than 100 µM for the second.

Compared with `N#Cc1sc2c(c1OC(=O)c1ccc(C(F)(F)F)cc1)c(=O)n(-c1ccccc1)c(=S)n2-c1ccccc1`, `O=C(c1ccccc1)c1ccc2c(c1)NC(=O)c1ccccc1SSc1ccccc1C(=O)N2` is higher in TGI: 93.5 µM for the first, greater than 100 µM for the second.

`CCOC(=O)/C(C(C)=O)=C(\OC(C)=O)c1ccncc1C(=O)O` and `CCOC(=O)CC/C(=N/Nc1ccc(Cl)cc1[N+](=O)[O-])C(=O)OCC` cannot be ordered by TGI: greater than 100 µM for the first, greater than 100 µM for the second.

First: Nc1ncc2c(n1)-c1ccccc1OC2N1CCCC1 (configuration not stated)
Second: OC(C#CCN1CCCC1)(c1ccccc1)c1ccccc1Cl (configuration not stated)
The TGI of the first is higher: greater than 100 µM for the first, 71.3 µM for the second.

`COc1cc(O)c2c(=O)c(OC)c(-c3ccc(OC)c(O)c3)oc2c1` and `OCCCc1ccc2c(c1)[C@H](CO)[C@@H](c1ccc(O)cc1)O2` cannot be ordered by TGI: greater than 100 µM for the first, greater than 100 µM for the second.

`CC(NC(=O)C(C)(C)NC(=O)C(CC(=O)OCc1ccccc1)NC(=O)OCc1ccccc1)C(N)=O` (configuration not stated) (Cbz-Asp(OBn)-[Aib]-Ala-NH2; configuration not given here) and `O=C(CN1C(=O)CC(c2ccccc2)(c2ccccc2)C1=O)N1CCN(CCO)CC1` cannot be ordered by TGI: greater than 100 µM for the first, greater than 100 µM for the second.

`Clc1ccc(C=NC23CC4CC(CC(C4)C2)C3)c(Cl)c1` and `c1ccc(C2=NOC(c3ccccc3)N2C23CC4CC(CC(C4)C2)C3)cc1` (configuration not stated) cannot be ordered by TGI: greater than 10 µM for the first, greater than 10 µM for the second.

Compared with `c1ccc(C(C(=Nc2ccc(Cc3ccc(N=C(C(c4ccccc4)c4ccccc4)N4CC4)cc3)cc2)N2CC2)c2ccccc2)cc1`, `O=C1CSC2(CC(/C=C/c3cccs3)=NN2c2cccc(S(=O)(=O)O)c2)N1c1nc2ccccc2s1` (configuration not stated) is higher in TGI: 21.3 µM for the first, greater than 100 µM for the second.

Compared with `CCOC(=O)C(NC(=O)CC)(N1CCN(c2cc3c(cc2F)c(=O)c(C(=O)O)cn3C2CC2)CC1)C(F)(F)F` (configuration not stated), `CN1CC[C@]2(c3cccc(O)c3)CC(=O)/C(=C/c3ccccc3)[C@@H]1C2` is lower in TGI: greater than 100 µM for the first, 6.74 µM for the second.

`CC12c3c4ccc(C=O)c3Oc3ccc(C=O)c(c31)Oc1ccc(C=O)c(c12)O4` and `O=[N+]([O-])c1cc2oc(CSc3ccccc3)nc2cc1Cl` cannot be ordered by TGI: greater than 25 µM for the first, greater than 100 µM for the second.

`CC(C)(CO)CNc1nc(N)nc(Cl)c1/C=N/O` and `CCc1n[nH]c(=O)n1-c1ccc2ccccc2c1` cannot be ordered by TGI: greater than 100 µM for the first, greater than 100 µM for the second.

`O=c1onc2n1-c1cc(Cl)ccc1C(=S)N1CSCC21` (configuration not stated) and `CSc1nc2c(c(N(C)C)n1)C(O)n1c(nc3ccccc31)S2` (configuration not stated) cannot be ordered by TGI: greater than 100 µM for the first, greater than 100 µM for the second.

`O=C(O)C(O)C(O)C(O)C(O)CO` (configuration not stated) and `C[C@@H]1CCC2[C@@H](C)[C@@H](O[C@H]3O[C@@H]4O[C@@]5(C)CCC6[C@H](C)CCC([C@H]3C)[C@]64OO5)O[C@@H]3O[C@@]4(C)CCC1[C@@]23OO4` (some centres not stated) cannot be ordered by TGI: greater than 100 µM for the first, greater than 25 µM for the second.

system: EKVX NSCLC; assay: NCI anticancer screen, dose series, 48 h

`Cc1cc(N(C)C)c2ccccc2[n+]1CCCCCCCCCC[n+]1c(C)cc(N(C)C)c2ccccc21` and `O=c1c2c(no[n+]2[O-])c2ccccc2n1-c1ccccc1` are within 1.5-fold of each other in TGI: 35.3 µM for the first, 24.5 µM for the second.

Compared with `CO/N=C(/C(=O)OC)c1ccccc1COc1ccccc1C(F)(F)F`, `COc1ccc2oc(=N)c(C(=O)Nc3ccccc3)cc2c1` is higher in TGI: 62.9 µM for the first, greater than 100 µM for the second.

Compared with `N#Cc1sc2c(c1OC(=O)c1ccc(C(F)(F)F)cc1)c(=O)n(-c1ccccc1)c(=S)n2-c1ccccc1`, `O=C(c1ccccc1)c1ccc2c(c1)NC(=O)c1ccccc1SSc1ccccc1C(=O)N2` is higher in TGI: 70.9 µM for the first, greater than 100 µM for the second.

`CCOC(=O)/C(C(C)=O)=C(\OC(C)=O)c1ccncc1C(=O)O` and `CCOC(=O)CC/C(=N/Nc1ccc(Cl)cc1[N+](=O)[O-])C(=O)OCC` cannot be ordered by TGI: greater than 100 µM for the first, greater than 100 µM for the second.

`Nc1ncc2c(n1)-c1ccccc1OC2N1CCCC1` (configuration not stated) and `OC(C#CCN1CCCC1)(c1ccccc1)c1ccccc1Cl` (configuration not stated) cannot be ordered by TGI: greater than 100 µM for the first, greater than 100 µM for the second.

`COc1cc(O)c2c(=O)c(OC)c(-c3ccc(OC)c(O)c3)oc2c1` and `COc1ccc(CC(N)=O)cc1OC` cannot be ordered by TGI: greater than 100 µM for the first, greater than 1250 µM for the second.

`CC(NC(=O)C(C)(C)NC(=O)C(CC(=O)OCc1ccccc1)NC(=O)OCc1ccccc1)C(N)=O` (configuration not stated) (Cbz-Asp(OBn)-[Aib]-Ala-NH2; configuration not given here) and `O=C(CN1C(=O)CC(c2ccccc2)(c2ccccc2)C1=O)N1CCN(CCO)CC1` cannot be ordered by TGI: greater than 100 µM for the first, greater than 100 µM for the second.

`Clc1ccc(C=NC23CC4CC(CC(C4)C2)C3)c(Cl)c1` and `c1ccc(C2=NOC(c3ccccc3)N2C23CC4CC(CC(C4)C2)C3)cc1` (configuration not stated) cannot be ordered by TGI: greater than 10 µM for the first, greater than 10 µM for the second.

Compared with `c1ccc(C(C(=Nc2ccc(Cc3ccc(N=C(C(c4ccccc4)c4ccccc4)N4CC4)cc3)cc2)N2CC2)c2ccccc2)cc1`, `O=C1CSC2(CC(/C=C/c3cccs3)=NN2c2cccc(S(=O)(=O)O)c2)N1c1nc2ccccc2s1` (configuration not stated) is higher in TGI: 25.9 µM for the first, greater than 100 µM for the second.

`OCCCc1ccc2c(c1)[C@H](CO)[C@@H](c1ccc(O)cc1)O2` and `CCc1n[nH]c(=O)n1-c1ccc2ccccc2c1` cannot be ordered by TGI: greater than 100 µM for the first, greater than 100 µM for the second.

`CCOC(=O)C(NC(=O)CC)(N1CCN(c2cc3c(cc2F)c(=O)c(C(=O)O)cn3C2CC2)CC1)C(F)(F)F` (configuration not stated) and `CCOC(=O)CNC(=O)NC12CC3CC(CC(C3)C1)C2` cannot be ordered by TGI: greater than 100 µM for the first, greater than 347 µM for the second.

`CC12c3c4ccc(C=O)c3Oc3ccc(C=O)c(c31)Oc1ccc(C=O)c(c12)O4` and `O=[N+]([O-])c1cc2oc(CSc3ccccc3)nc2cc1Cl` cannot be ordered by TGI: greater than 25 µM for the first, greater than 100 µM for the second.

`CC(C)(CO)CNc1nc(N)nc(Cl)c1/C=N/O` and `O=C(NCCCl)O/N=C/c1cccnc1` cannot be ordered by TGI: greater than 100 µM for the first, greater than 100 µM for the second.

First: O=c1onc2n1-c1cc(Cl)ccc1C(=S)N1CSCC21 (configuration not stated)
Second: CN1CC[C@]2(c3cccc(O)c3)CC(=O)/C(=C/c3ccccc3)[C@@H]1C2
The TGI of the first is higher: greater than 100 µM for the first, 20.2 µM for the second.

`O=C(O)C(O)C(O)C(O)C(O)CO` (configuration not stated) and `CSc1nc2c(c(N(C)C)n1)C(O)n1c(nc3ccccc31)S2` (configuration not stated) cannot be ordered by TGI: greater than 100 µM for the first, greater than 100 µM for the second.

For `C[C@@H]1CCC2[C@@H](C)[C@@H](O[C@H]3O[C@@H]4O[C@@]5(C)CCC6[C@H](C)CCC([C@H]3C)[C@]64OO5)O[C@@H]3O[C@@]4(C)CCC1[C@@]23OO4` (some centres not stated), the TGI was greater than 25 µM.

system: NCI-H522 lung; assay: NCI anticancer screen, dose series, 48 h

`Cc1cc(N(C)C)c2ccccc2[n+]1CCCCCCCCCC[n+]1c(C)cc(N(C)C)c2ccccc21` and `CO/N=C(/C(=O)OC)c1ccccc1COc1ccccc1C(F)(F)F` cannot be ordered by TGI: greater than 29.7 µM for the first, 56.3 µM for the second.
